What all share (assay): relative viability (nuclei count vs DMSO), 5 days (fraction); higher = more cells survive
Compound in the experiment “CAP-232 + Vorinostat”: C[C@H]([C@@H](C(=O)N)NC(=O)[C@@H]1CSSC[C@@H](C(=O)N[C@H](C(=O)N[C@@H](C(=O)N[C@H](C(=O)N1)CCCCN)CC2=CNC3=CC=CC=C32)CC4=CC=C(C=C4)O)NC(=O)[C@@H](CC5=CC=CC=C5)N)O [CAP-232] + O=C(CCCCCCC(=O)Nc1ccccc1)NO [Vorinostat] (partner 1 µM)
Put shortly:
(§1)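 Cells from lung cancer lines were seeded into 1536-well plates and, one day later, dosed by pin tool. Treatments were either a single drug or a fixed dose of an anchor drug with five library-drug doses (not always all listed) in √10 steps. After 5 days, nuclei were stained in a one-step fixation (final 0.05% Triton X-100, 1% formaldehyde, 1 ug/ml Hoechst) and counted on 4× images, and relative viability is the treated-to-vehicle nuclei ratio, as the median of duplicate plates.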

Compound in the experiment “CAP-232 + Phenformin”: C[C@H]([C@@H](C(=O)N)NC(=O)[C@@H]1CSSC[C@@H](C(=O)N[C@H](C(=O)N[C@@H](C(=O)N[C@H](C(=O)N1)CCCCN)CC2=CNC3=CC=CC=C32)CC4=CC=C(C=C4)O)NC(=O)[C@@H](CC5=CC=CC=C5)N)O [CAP-232] + N=C(N)NC(=N)NCCc1ccccc1 [Phenformin] (partner 250 µM)
In outline:
as §1

Compound in the experiment “CAP-232 + Pictilisib”: C[C@H]([C@@H](C(=O)N)NC(=O)[C@@H]1CSSC[C@@H](C(=O)N[C@H](C(=O)N[C@@H](C(=O)N[C@H](C(=O)N1)CCCCN)CC2=CNC3=CC=CC=C32)CC4=CC=C(C=C4)O)NC(=O)[C@@H](CC5=CC=CC=C5)N)O [CAP-232] + CS(=O)(=O)N1CCN(Cc2cc3nc(-c4cccc5[nH]ncc45)nc(N4CCOCC4)c3s2)CC1 [Pictilisib] (partner 1 µM)
In outline: as §1

Compound in the experiment “CAP-232 + Tozasertib”: C[C@H]([C@@H](C(=O)N)NC(=O)[C@@H]1CSSC[C@@H](C(=O)N[C@H](C(=O)N[C@@H](C(=O)N[C@H](C(=O)N1)CCCCN)CC2=CNC3=CC=CC=C32)CC4=CC=C(C=C4)O)NC(=O)[C@@H](CC5=CC=CC=C5)N)O [CAP-232] + Cc1cc(Nc2cc(N3CCN(C)CC3)nc(Sc3ccc(NC(=O)C4CC4)cc3)n2)n[nH]1 [Tozasertib] (partner 0.1 µM)
Put shortly:
as §1

Compound in the experiment “CAP-232 + Alpelisib”: C[C@H]([C@@H](C(=O)N)NC(=O)[C@@H]1CSSC[C@@H](C(=O)N[C@H](C(=O)N[C@@H](C(=O)N[C@H](C(=O)N1)CCCCN)CC2=CNC3=CC=CC=C32)CC4=CC=C(C=C4)O)NC(=O)[C@@H](CC5=CC=CC=C5)N)O [CAP-232] + Cc1nc(NC(=O)N2CCC[C@H]2C(N)=O)sc1-c1ccnc(C(C)(C)C(F)(F)F)c1 [Alpelisib] (partner 2 µM)
In outline: as §1

With NCI-H838, the relative viability with CAP-232 + Vorinostat (first compound 0.4 µM) was 0.727; with CAP-232 + Vorinostat (first compound 1.265 µM), 0.756; with CAP-232 + Vorinostat (first compound 4 µM), 0.754; with CAP-232 + Vorinostat (first compound 12.65 µM), 0.736; in the experiment with CAP-232 + Phenformin (first compound 0.4 µM) it was 0.609; with CAP-232 + Phenformin (first compound 1.265 µM), 0.53. Also, the relative viability worked out at 0.593 with CAP-232 + Phenformin (first compound 4 µM); 0.537 with CAP-232 + Phenformin (first compound 12.65 µM); 0.439 with CAP-232 + Pictilisib (first compound 0.4 µM); 0.357 with CAP-232 + Pictilisib (first compound 1.265 µM); 0.475 with CAP-232 + Pictilisib (first compound 4 µM); 0.345 with CAP-232 + Pictilisib (first compound 12.65 µM). Further, the relative viability with CAP-232 + Tozasertib (first compound 0.4 µM) worked out at 0.274; with CAP-232 + Tozasertib (first compound 1.265 µM), 0.273; in the experiment with CAP-232 + Tozasertib (first compound 4 µM), 0.286; in the experiment with CAP-232 + Tozasertib (first compound 12.65 µM) it was 0.231; with CAP-232 + Alpelisib (first compound 0.4 µM) it was 1.08; with CAP-232 + Alpelisib (first compound 1.265 µM), 0.944. Also, the relative viability amounted to 1.12 in the experiment with CAP-232 + Alpelisib (first compound 4 µM) and 0.644 with CAP-232 + Alpelisib (first compound 12.65 µM).

Consider NCI-H1355, for which the relative viability with CAP-232 + Vorinostat (first compound 0.4 µM) turned out to be 0.612; with CAP-232 + Vorinostat (first compound 1.265 µM) it was 0.624; with CAP-232 + Vorinostat (first compound 4 µM) it was 0.74; with CAP-232 + Vorinostat (first compound 12.65 µM) it was 0.611; in the experiment with CAP-232 + Phenformin (first compound 0.4 µM), 0.517; in the experiment with CAP-232 + Phenformin (first compound 1.265 µM), 0.467. The relative viability in the experiment with CAP-232 + Phenformin (first compound 4 µM) was found to be 0.43; with CAP-232 + Phenformin (first compound 12.65 µM), 0.418; in the experiment with CAP-232 + Pictilisib (first compound 0.4 µM), 0.365; with CAP-232 + Pictilisib (first compound 1.265 µM) it was 0.464; with CAP-232 + Pictilisib (first compound 4 µM), 0.497; with CAP-232 + Pictilisib (first compound 12.65 µM) it was 0.521. Moreover, the relative viability in the experiment with CAP-232 + Tozasertib (first compound 0.4 µM) was 0.638; with CAP-232 + Tozasertib (first compound 1.265 µM), 0.586; with CAP-232 + Tozasertib (first compound 4 µM), 0.557; with CAP-232 + Tozasertib (first compound 12.65 µM) it was 0.655; with CAP-232 + Alpelisib (first compound 0.4 µM), 0.845; with CAP-232 + Alpelisib (first compound 1.265 µM), 0.842. Further, the relative viability came to 0.963 with CAP-232 + Alpelisib (first compound 4 µM) and 0.864 with CAP-232 + Alpelisib (first compound 12.65 µM).

In the case of NCI-H1395, the relative viability was 1.11 with CAP-232 + Vorinostat (first compound 0.4 µM); 0.79 in the experiment with CAP-232 + Vorinostat (first compound 4 µM); 0.573 with CAP-232 + Vorinostat (first compound 12.65 µM); 0.46 in the experiment with CAP-232 + Phenformin (first compound 0.4 µM); 0.4 with CAP-232 + Phenformin (first compound 1.265 µM); 0.448 with CAP-232 + Phenformin (first compound 4 µM). The relative viability is 0.453 with CAP-232 + Phenformin (first compound 12.65 µM); 0.593 with CAP-232 + Pictilisib (first compound 0.4 µM); 0.433 in the experiment with CAP-232 + Pictilisib (first compound 1.265 µM); 0.602 with CAP-232 + Pictilisib (first compound 4 µM); 0.576 with CAP-232 + Pictilisib (first compound 12.65 µM); 0.677 with CAP-232 + Tozasertib (first compound 0.4 µM). Moreover, the relative viability came out at 0.793 in the experiment with CAP-232 + Tozasertib (first compound 1.265 µM); 0.765 with CAP-232 + Tozasertib (first compound 4 µM); 0.79 in the experiment with CAP-232 + Tozasertib (first compound 12.65 µM); 0.888 with CAP-232 + Alpelisib (first compound 0.4 µM); 1.08 in the experiment with CAP-232 + Alpelisib (first compound 1.265 µM); 0.912 with CAP-232 + Alpelisib (first compound 4 µM). Also, the relative viability with CAP-232 + Alpelisib (first compound 12.65 µM) was determined as 0.848.

NCI-H1437: the relative viability with CAP-232 + Vorinostat (first compound 0.4 µM) stood at 0.921; with CAP-232 + Vorinostat (first compound 1.265 µM), 0.877; with CAP-232 + Vorinostat (first compound 4 µM), 0.86; in the experiment with CAP-232 + Vorinostat (first compound 12.65 µM) it was 0.828; in the experiment with CAP-232 + Phenformin (first compound 0.4 µM), 0.297; with CAP-232 + Phenformin (first compound 1.265 µM), 0.307. Besides, the relative viability turned out to be 0.327 with CAP-232 + Phenformin (first compound 4 µM); 0.254 with CAP-232 + Phenformin (first compound 12.65 µM); 0.38 with CAP-232 + Pictilisib (first compound 0.4 µM); 0.426 in the experiment with CAP-232 + Pictilisib (first compound 1.265 µM); 0.515 with CAP-232 + Pictilisib (first compound 4 µM); 0.279 with CAP-232 + Pictilisib (first compound 12.65 µM). Moreover, the relative viability with CAP-232 + Tozasertib (first compound 0.4 µM) was 0.412; with CAP-232 + Tozasertib (first compound 1.265 µM), 0.403; with CAP-232 + Tozasertib (first compound 4 µM), 0.461; with CAP-232 + Tozasertib (first compound 12.65 µM) it was 0.466; with CAP-232 + Alpelisib (first compound 0.4 µM), 0.901; with CAP-232 + Alpelisib (first compound 1.265 µM) it was 1.04. The relative viability in the experiment with CAP-232 + Alpelisib (first compound 4 µM) was found to be 1.05; in the experiment with CAP-232 + Alpelisib (first compound 12.65 µM), 0.768.

On to NCI-H1651, for which the relative viability is 0.632 with CAP-232 + Vorinostat (first compound 0.4 µM); 0.55 with CAP-232 + Vorinostat (first compound 1.265 µM); 0.577 with CAP-232 + Vorinostat (first compound 4 µM); 0.551 with CAP-232 + Vorinostat (first compound 12.65 µM); 0.407 with CAP-232 + Phenformin (first compound 0.4 µM); 0.32 in the experiment with CAP-232 + Phenformin (first compound 1.265 µM). The relative viability with CAP-232 + Phenformin (first compound 4 µM) came out at 0.352; with CAP-232 + Phenformin (first compound 12.65 µM), 0.25; with CAP-232 + Pictilisib (first compound 0.4 µM), 0.666; with CAP-232 + Pictilisib (first compound 1.265 µM), 0.685; with CAP-232 + Pictilisib (first compound 4 µM) it was 0.624; in the experiment with CAP-232 + Pictilisib (first compound 12.65 µM) it was 0.368. In addition, the relative viability was found to be 0.665 in the experiment with CAP-232 + Tozasertib (first compound 0.4 µM); 0.681 in the experiment with CAP-232 + Tozasertib (first compound 1.265 µM); 0.732 with CAP-232 + Tozasertib (first compound 4 µM); 0.625 in the experiment with CAP-232 + Tozasertib (first compound 12.65 µM); 1.01 in the experiment with CAP-232 + Alpelisib (first compound 0.4 µM); 0.841 with CAP-232 + Alpelisib (first compound 1.265 µM). Also, the relative viability turned out to be 1.08 with CAP-232 + Alpelisib (first compound 4 µM) and 0.728 with CAP-232 + Alpelisib (first compound 12.65 µM).

Regarding NCI-H1666, the relative viability is 1.09 with CAP-232 + Vorinostat (first compound 0.4 µM); 1.06 with CAP-232 + Vorinostat (first compound 1.265 µM); 1.19 with CAP-232 + Vorinostat (first compound 4 µM); 0.856 with CAP-232 + Vorinostat (first compound 12.65 µM); 0.611 with CAP-232 + Phenformin (first compound 0.4 µM); 0.575 with CAP-232 + Phenformin (first compound 1.265 µM). The relative viability in the experiment with CAP-232 + Phenformin (first compound 4 µM) came to 0.573; in the experiment with CAP-232 + Phenformin (first compound 12.65 µM) it was 0.593; with CAP-232 + Pictilisib (first compound 0.4 µM) it was 0.44; with CAP-232 + Pictilisib (first compound 4 µM), 0.356; with CAP-232 + Pictilisib (first compound 12.65 µM), 0.248; in the experiment with CAP-232 + Tozasertib (first compound 0.4 µM), 0.631. The relative viability in the experiment with CAP-232 + Tozasertib (first compound 1.265 µM) was 0.574; in the experiment with CAP-232 + Tozasertib (first compound 4 µM) it was 0.673; with CAP-232 + Tozasertib (first compound 12.65 µM), 0.345; with CAP-232 + Alpelisib (first compound 0.4 µM), 0.991; with CAP-232 + Alpelisib (first compound 4 µM), 1.05; in the experiment with CAP-232 + Alpelisib (first compound 12.65 µM), 0.816.

Consider NCI-H1734, for which the relative viability with CAP-232 + Vorinostat (first compound 0.4 µM) is 0.878; in the experiment with CAP-232 + Vorinostat (first compound 1.265 µM) it was 0.755; with CAP-232 + Vorinostat (first compound 4 µM), 0.803; with CAP-232 + Vorinostat (first compound 12.65 µM) it was 0.708; in the experiment with CAP-232 + Phenformin (first compound 0.4 µM), 0.369; with CAP-232 + Phenformin (first compound 1.265 µM), 0.321. Further, the relative viability in the experiment with CAP-232 + Phenformin (first compound 4 µM) came to 0.387; with CAP-232 + Phenformin (first compound 12.65 µM), 0.264; in the experiment with CAP-232 + Pictilisib (first compound 0.4 µM), 0.393; with CAP-232 + Pictilisib (first compound 1.265 µM), 0.44; in the experiment with CAP-232 + Pictilisib (first compound 4 µM), 0.455; in the experiment with CAP-232 + Pictilisib (first compound 12.65 µM) it was 0.462. In addition, the relative viability with CAP-232 + Tozasertib (first compound 0.4 µM) turned out to be 0.248; in the experiment with CAP-232 + Tozasertib (first compound 1.265 µM) it was 0.272; in the experiment with CAP-232 + Tozasertib (first compound 4 µM), 0.266; with CAP-232 + Tozasertib (first compound 12.65 µM) it was 0.197; with CAP-232 + Alpelisib (first compound 0.4 µM), 0.611; with CAP-232 + Alpelisib (first compound 1.265 µM), 0.662. Also, the relative viability was 0.755 in the experiment with CAP-232 + Alpelisib (first compound 4 µM) and 0.702 with CAP-232 + Alpelisib (first compound 12.65 µM).
